Test results taken from US20230338463A1, “ICD PEPTIDE AND USE THEREOF FOR HAVING CYTOTOXIC ACTIVITY ON CANCER CELLS” (NATIONAL TSING HUA UNIVERSITY, priority 2022, published 2023).
Non-standard residues stand in square brackets, D forms with d. Residues, ends and D or L forms follow the SMILES beside them. 2Nal = N[C@@H](Cc1ccc2ccccc2c1)C(=O)O

Tests used:
[1] = system: OECM-1 cells (gingival epidermoid carcinoma); settings: human, 24 h
From the text: (§1) Three non-small cell lung cancer cell lines (H1975, A549, PC9) and two oral cancer cell lines (CGNHC9, OECM-1) were used in the present invention. H1975 is the non-small cell lung carcinoma tissue, A549 is the adenocarcinomic alveolar basal epithelial cells and PC9 is the non-small cell lung cancer with EGFR mutation. CGNHC9 and OECM-1 cell lines refer to oral squamous cell carcinoma and gingival epidermoid carcinoma respectively. The abovemetioned cell lines were derived from human origin and being cultured in the humidified incubator containing 5% CO2 at 37° C. CGNHC9 cell line was cultured in Dulbecco’s modified Eagle’s medium (GIBCO Life Technologies Corporation, NY, USA) with 10% fetal bovine serum (FBS), 2 mM L-glutamine and 1% penicillin/ streptomycin and Roswell Park Memorial Institute 1640 (RPMI 1640, GIBCO Life Technologies Corporation, NY, USA) medium with 10% fetal bovine serum (FBS), 2 mM L-glutamine and 1% penicillin/ streptomycin was used as the culture medium for the rest of the cell lines.
(§2) The anticancer activity of ICD peptides include, not limited, SEQ ID NO: 1 and its derivative peptides (SEQ ID NO: 2, SEQ ID NO: 3, SEQ ID NO: 4, and SEQ ID NO: 5) was using the 3-(4,5-Dimethyl-2-thiazolyl)-2,5-diphenyl-2H-tetrazolium bromide (MTT, Sigma Aldrich, St. Louis, MO, USA) colorimetric assay for cell viability test. The cells include, not limited, H1975, A549, PC9, CGNHC9, OECM-1, MN-11 and HFW cells/cell lines.
(§3) The cells were seeded in the 96-well plate at 5000 cells/well under the environment of humidified 5% CO2 and the temperature of 37° C. for 24 hours. The medium was removed from the well before the fresh medium containing different concentrations of ICD peptides was added and incubated for 24 hours. Medium with PBS solution was used as control group. All ICD peptides were diluted serially from 100 µM to 0.78 µM in ddH2O before adding in the medium. After 24 hours of ICD peptide treatment, fresh medium with 10% MTT solution (5 mg/mL) was incubated for additional 4 hours in advance of dissolving the formazan crystal in 100 µL DMSO (Dimethyl sulfoxide, Sigma Aldrich) solution. The calculation of cell survival rate was completed by measuring the absorbance at 570 nm using microplate reader (TECAN Sunrise ELISA Reader).
(§4) The cell survival was calculated from the treated cells relative to the control (100% viable cells) using the mean of three independent experiments and expressed as a 50% inhibitory concentration (IC50).
(§5) The percentage of cell viability was calculated using the following formula: […]
(§6) The half inhibition concentration (IC50) is the concentration required by the drug to reach fifty percent inhibition. In one embodiment, the SEQ ID NO: 1 and its derivative peptides (SEQ ID NO:2, SEQ ID NO:3, SEQ ID NO:4, SEQ ID NO: 5) was used for IC50 test via MTT colorimetric assay.

[2] = system: PC9 cells (non-small cell lung cancer with EGFR mutation); settings: human, 24 h
From the text: as §1, §2, §3, §4, §5, §6

[3] = system: CGNHC9 cells (oral squamous cell carcinoma); settings: human, 24 h
From the text: as §1, §2, §3, §4, §5, §6

[4] = system: MN-11 cells (murine fibrosarcoma); assay type: cell-based
From the text: Medium with PBS solution was used as control group.
Besides, MTT assay was used to test the cell viability of the murine fibrosarcoma MN-11 cell line. Among the peptides, Dip-P-113 had the lowest cytotoxicity against MN-11 cells (FIG. 1F).

MN-11 cells [5] = test: Extracellular HMGB1 Western blot, MN-11; assay type: cell-based, murine
Description: On the other hand, The MN-11 cells were seeded at the density of 1 × 10^5 cells/well and left to adhere for 24 hrs. Cells were treated with Nal-P-113, Bip-P-113 and Dip-P-113 at 2× IC50 for 1 and 4 hours. After treatment of the peptides, the supernatant and lysate of the cells were collected separately for further experiments. The supernatant was collected after centrifugation at the speed of 1,400 ×g. The cell lysate was washed twice using PBS before the sonication of the pellet using bio-disruptor, and the disrupted pellet was centrifuged again for 10 minutes under 14,000 rpm at 4° C. The concentration of the samples was quantified using the Bradford assay. Both supernatants and cell lysate were loaded and run on the sodium dodecyl sulfate polyacrylamide gel electrophoresis (SDS-PAGE), and then electro transferred to a polyvinylidene difluoride (PVDF) membrane (Merck-Millipore, Burlington, Massachusetts, United States) in electro-blot system, 30 V, 400 mA, for 75 mins. The membrane was incubated in blocking buffer (5% skim milk, TBST buffer) for 1 hour in room temperature and washed in TBST buffer three times. […] The secondary antibody of rabbit (diluted in 1: 10000) was incubated following the rinsing with PBST three times for 2 hours the next day in the room temperature before being developed using luminol reagent and imaged by a detected system (ImageQuant LAS 4000 mini).

MN-11 cells [6] = test: Luciferin-luciferase extracellular ATP, MN-11; assay type: cell-based, murine; settings: MN-11, 2 × IC50, peak at 0.5-hour
Description: On the other hand, MN-11 cells were seeded at the density of 25,000 cells/ well in the 96 well plate and allowed to adhere for 24 hours. Cells were treated with Nal-P-113, Bip-P-113 and Dip-P-113 at 2× IC50 for 0.5, 1, 1.5, and 2 hours. Untreated cells served as the control group. After being treated for different time points (0.5, 1, 1.5, and 2 hours), the supernatant of cells was analyzed using the ENLITEN ATP luciferase assay kit (Promega, Madison, WI, USA). The level of the extracellular ATP chemiluminescence was measured at 560 nm using the Wallac VICTOR 3 Multilabel plate reader (PerkinElmer, Shelton, CT, USA).
ATP release from MN-11 cells were measured using the luciferin-luciferase assay after peptide (2 × IC50) treatment (FIGS. 6B-6D). Nal-P-113 and Dip-P-113 reached the relative light unit (~ 11,000 RLU) peak at 0.5-hour, and Bip-P-113 reached the highest peak at 1 hour (~ 13,000 RLU).

MN-11 cells [7] = test: Tumor re-challenge of cured animals; assay type: in vivo, C57BL/6 mice; settings: n=5
Description: Tumor size was measured every 2 days using a caliper, and the volume of tumors was calculated using the following formula: Tumor size (mm^3) = 0.5×(width^2×length). The survival rates of tumor-bearing mice were observed and recorded

With `CC(=O)N[C@@H](C)C(=O)N[C@@H](CCCCN)C(=O)N[C@@H](CCCNC(=N)N)C(=O)N[C@@H](Cc1ccc2ccccc2c1)C(=O)N[C@@H](Cc1ccc2ccccc2c1)C(=O)NCC(=O)N[C@@H](Cc1ccc(O)cc1)C(=O)N[C@@H](CCCCN)C(=O)N[C@@H](CCCNC(=N)N)C(=O)N[C@@H](CCCCN)C(=O)N[C@@H](Cc1ccccc1)C(=O)N[C@@H](Cc1ccc2ccccc2c1)C(N)=O` [SEQ ID NO:3, Ac-AKR Nal Nal GYKRKFNal-NH2] (Ac-AKR[2Nal][2Nal]GYKRKF[2Nal]-NH2) as the molecule, how does the cell viability percentage [1] read?
The cell viability percentage was “lower than 20%”.

What about the cell viability percentage [2] of the same molecule?
The cell viability percentage was “lower than 20%”.

And the cell viability percentage [3]?
The cell viability percentage was “lower than 20%”.

What about the IC50 [4] of the same molecule?
The IC50 was 11.1 ± 1.37 µM.

What about the HMGB1 in supernatant (MN-11 cells [5]; MN-11, 2× IC50, 1 hour) of the same molecule?
Its HMGB1 in supernatant is “observed in the supernatant”.

And the HMGB1 in supernatant (MN-11 cells [5]; MN-11, 2× IC50, 4 hours)?
The HMGB1 in supernatant was “still a significant concentration”.

What about the “ATP release, relative light unit peak” value (MN-11 cells [6]) of the same molecule?
Its value is ~ 11,000 RLU.

And the “protection from MN-11 cells re-challenge” value (MN-11 cells [7]; animals with complete regression, s.c. re-challenge)?
Its value is “All animals were protected”.

And the survival after re-challenge (MN-11 cells [7]; until the end of the experiments (55 days))?
The survival after re-challenge was “stayed alive”.
